Results taken from patent US8927531B2, “Indanyloxydihydrobenzofuranylacetic acids” (Boehringer Ingelheim International GmbH, priority 2013, dated 2015).

Molecular target: human GPR40 receptor (Homo sapiens, UniProt O14842)
Experiment: IP1 accumulation measurements using the IPOne assay system in 1321N1 cells stably expressing human GPR40 receptor
Format: cell-based
Settings: stimulation 1 h at 37° C.
Protocol: IP1 accumulation measurements using the IPOne assay system—1321N1 cells stably expressing human GPR40 receptor (Euroscreen, Belgium) are seeded 24 h before the assay in white 384-well plates in culture medium containing 10% FCS, 1% Na-Pyruvate and 400 μg/mL G418. IP1 is assayed according to the manufacturer's description (Cisbio Bioassays, France). In brief, the assay is started by substitution of the culture medium by stimulation buffer (Hepes 10 mM, CaCl2 1 mM, MgCl2 0.5 mM, KCl 4.2 mM, NaCl 146 mM, glucose 5.5 mM and LiCl 50 mM, pH 7.4). Cells are stimulated for 1 h at 37° C., 5% CO2 by addition of the compounds that are diluted in stimulation buffer containing LiCl. Assays are stopped by adding HTRF-conjugates (IP1-d2 and Anti-IP1 cryptate Tb) and lysis buffer, provided by the manufacturer. After an incubation time of 1 h at room temperature plates are measured using an EnVision™, Perkin Elmer. The obtained fluorescence ratios at 665/615 […] are then used to calculate the pEC50 values using Assay Explorer 3.3 Software (Accelrys, Inc.) by interpolation using an IP1 reference curve and subsequent sigmoidal curve fitting allowing for a variable hill slope.

Sequence of human GPR40 receptor (O14842 whole entry): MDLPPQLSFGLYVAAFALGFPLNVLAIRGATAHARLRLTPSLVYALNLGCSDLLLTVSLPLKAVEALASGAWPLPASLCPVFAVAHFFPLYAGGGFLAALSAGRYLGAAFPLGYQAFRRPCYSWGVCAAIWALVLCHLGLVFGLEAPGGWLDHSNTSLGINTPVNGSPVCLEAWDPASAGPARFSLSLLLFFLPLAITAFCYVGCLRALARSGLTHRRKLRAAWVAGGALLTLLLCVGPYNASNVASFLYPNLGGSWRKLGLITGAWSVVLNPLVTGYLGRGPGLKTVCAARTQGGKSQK

SMILES | EC50
CC1(O)CCN(Cc2c(C(F)(F)F)ccc3c2CC[C@H]3Oc2ccc3c(c2)OC[C@H]3CC(=O)O)CC1 [Example 14, {(S)-6-[(R)-4-(4-Hydroxy-4-methyl-piperidin-1-ylmethyl)-5-trifluoromethyl-indan-1-yloxy]-2,3-dihydro-benzofuran-3-yl}-acetic acid] | 0.015 µM
O=C(O)C[C@@H]1COc2cc(O[C@@H]3CCc4c3ccc(C(F)(F)F)c4CN3CCC(F)(F)CC3)ccc21 [Example 7, {(S)-6-[(R)-4-(4,4-Difluoro-piperidin-1-ylmethyl)-5-trifluoromethyl-indan-1-yloxy]-2,3-dihydro-benzofuran-3-yl}-acetic acid] | 0.003 µM
O=C(O)C[C@@H]1COc2cc(O[C@@H]3CCc4c3ccc(C(F)(F)F)c4CN3CCC4(CC3)CC4)ccc21 [Example 8, {(S)-6-[(R)-4-(6-Aza-spiro[2.5]oct-6-ylmethyl)-5-trifluoromethyl-indan-1-yloxy]-2,3-dihydro-benzofuran-3-yl}-acetic acid] | 0.005 µM
O=C(O)C[C@@H]1COc2cc(O[C@@H]3CCc4c3ccc(C(F)(F)F)c4CN3CCC(CO)CC3)ccc21 [Example 13, {(S)-6-[(R)-4-(4-Hydroxymethyl-piperidin-1-ylmethyl)-5-trifluoromethyl-indan-1-yloxy]-2,3-dihydro-benzofuran-3-yl}-acetic acid] | 0.009 µM
O=C(O)C[C@@H]1COc2cc(O[C@@H]3CCc4c3ccc(C(F)(F)F)c4CN3CCn4ccnc4C3)ccc21 [Example 27, {(S)-6-[(R)-4-(5,6-Dihydro-8H-imidazo[1,2-a]pyrazin-7-ylmethyl)-5-trifluoromethyl-indan-1-yloxy]-2,3-dihydro-benzofuran-3-yl}-acetic acid] | 0.017 µM
O=C(O)C[C@@H]1COc2cc(O[C@@H]3CCc4c3ccc(C(F)(F)F)c4CN3CC4CC4C3)ccc21 (stereo partly drawn) [Example 12, {(S)-6-[(R)-4-(3-Aza-bicyclo[3.1.0]hex-3-ylmethyl)-5-trifluoromethyl-indan-1-yloxy]-2,3-dihydro-benzofuran-3-yl}-acetic acid] | 0.02 µM
O=C(O)C[C@@H]1COc2cc(O[C@@H]3CCc4c3ccc(C(F)(F)F)c4CN3CCCC3)ccc21 [Example 4, {(S)-6-[(R)-4-Pyrrolidin-1-ylmethyl-5-trifluoromethyl-indan-1-yloxy]-2,3-dihydro-benzofuran-3-yl}-acetic acid] | 0.092 µM
CC1(C)CN(Cc2c(C(F)(F)F)ccc3c2CC[C@H]3Oc2ccc3c(c2)OC[C@H]3CC(=O)O)CCO1 [Example 23, {(S)-6-[(R)-4-(2,2-Dimethyl-morpholin-4-ylmethyl)-5-trifluoromethyl-indan-1-yloxy]-2,3-dihydro-benzofuran-3-yl}-acetic acid] | 0.007 µM
CC(C)(C)OC(=O)N1CCN(Cc2c(C(F)(F)F)ccc3c2CC[C@H]3Oc2ccc3c(c2)OC[C@H]3CC(=O)O)CC1 [Example 2, {(S)-6-[(R)-4-(4-tert-Butoxycarbonyl-piperazin-1-ylmethyl)-5-trifluoromethyl-indan-1-yloxy]-2,3-dihydro-benzofuran-3-yl}-acetic acid] | 0.02 µM
O=C(O)C[C@@H]1COc2cc(O[C@@H]3CCc4c3ccc(C(F)(F)F)c4CN3CCc4ncsc4C3)ccc21 [Example 30, {(S)-6-[(R)-4-(6,7-Dihydro-thiazolo[5,4-c]pyridin-5-ylmethyl)-5-trifluoromethyl-indan-1-yloxy]-2,3-dihydro-benzofuran-3-yl}-acetic acid] | 0.003 µM
COC(=O)N1CCN(Cc2c(C(F)(F)F)ccc3c2CC[C@H]3Oc2ccc3c(c2)OC[C@H]3CC(=O)O)CC1 [Example 17, {(S)-6-[(R)-4-(4-Methoxycarbonyl-piperazin-1-ylmethyl)-5-trifluoromethyl-indan-1-yloxy]-2,3-dihydro-benzofuran-3-yl}-acetic acid] | 0.004 µM
O=C(O)C[C@@H]1COc2cc(O[C@@H]3CCc4c3ccc(C(F)(F)F)c4CN3C4CCCC3CC4)ccc21 [Example 25, {(S)-6-[(R)-4-(8-Aza-bicyclo[3.2.1]oct-8-ylmethyl)-5-trifluoromethyl-indan-1-yloxy]-2,3-dihydro-benzofuran-3-yl}-acetic acid] | 0.015 µM
CN1CCN(Cc2c(C(F)(F)F)ccc3c2CC[C@H]3Oc2ccc3c(c2)OC[C@H]3CC(=O)O)CC1=O [Example 26, {(S)-6-[(R)-4-(4-Methyl-3-oxo-piperazin-1-ylmethyl)-5-trifluoromethyl-indan-1-yloxy]-2,3-dihydro-benzofuran-3-yl}-acetic acid] | 0.026 µM
O=C(O)C[C@@H]1COc2cc(O[C@@H]3CCc4c3ccc(C(F)(F)F)c4CN3CCc4ncccc4C3)ccc21 [Example 28, {(S)-6-[(R)-4-(7,8-Dihydro-[1,6]naphthyridin-6-ylmethyl)-5-trifluoromethyl-indan-1-yloxy]-2,3-dihydro-benzofuran-3-yl}-acetic acid] | 0.004 µM
